Here are results for six molecules from patent US9527876B2, “Prodrugs of bicyclic substituted pyrimidine type PDE-5 inhibitors” (Xuanzhu Pharma Co., Ltd., priority 2013, dated 2016).

Data set [1] can be described thus: Solubility of Compound Q in buffer solutions of different pH (HPLC). It counts as physicochemical. The following applies: aqueous buffer, thermodynamic from solid, 1 mg in 1 mL, read-out: Measured concentration (solubility). As to the method:
2. Method for preparing sample of Compound Q, 4 parts of test sample were precisely weighed, each was 1 mg and was separately added to 1 mL of buffer solutions of pH 3, pH 5, pH 7, pH 9, treated with ultrasound for 5 min and filtered through 0.45 μm organic filtration membrane. The filter liquors were used as test sample solutions. 10 μL of each was injected into high performance liquid chromatograph, and peak areas were recorded.
4.88 mg of test sample was precisely weighed, placed in 10 mL volumetric flask, added to 1 mL of methanol for dissolution, then diluted with methanol to constant volume to obtain a solution containing 0.488 mg of control per 1 mL, which was used as mother liquor A. The mother liquor A was gradually diluted with methanol to obtain control solutions containing 0.0488 mg or 0.00976 mg per 1 mL.
Linear regression was performed by using control concentration (C) as abscissa, and peak area (Y) as ordinate so as to obtain a linear equation. The concentrations of test sample solutions were obtained by putting the peak areas of test sample solutions into the linear equation.
The control linear equation of Compound Q is: Y=24262C, correlation coefficient r=1.0000.
Instrument and equipment: Agilent 1200 HPLC
Chromatography column: YMC-Pack-Pro C18(150×4.6 mm, 5 μm)
Buffer solution: 0.02 mol/L ammonium dihydrogen phosphate (added 0.2% triethylamine, and regulated with phosphoric acid to pH=6.0)
Phase A: acetonitrile-buffer solution=[…], Phase B: acetonitrile-buffer solution=80:20
Mobile phase: Phase A: Phase B=65:35
Detection wavelength: 254 nm Sample size: 10 μL

A short description of data set [2]: Solubility in ultrapure water (visual observation). It counts as physicochemical. As to the method: Method for preparing samples of Compounds 4, 4-A, Compounds 9, and 9-B: 2 mg of test sample was taken, gradually added to ultrapure water, treated with ultrasound for 5 min each time until the sample was completely dissolved by visional observation.
For data set [3] the following is noted: in human, background statement; cited from earlier work.
For data set [4] the following is noted: in vivo, background statement; cited from earlier work.
For data set [5] the following is noted: rat, in vivo, iv, 1 mg/kg.
Procedure: (§1) Chromatographic column: Agilent XDBC18(2.1×50 mm, 5 μm)
(§2) Rat blood collection: animal was fixed, heated at tail with water-bath 10 min before each time point, about 200 μL of blood was collected from caudal vein, and the collected blood was placed in anticoagulative tube containing heparin sodium. Blood sample was centrifuged under 8000 rpm at 4° C. for 6 min to obtain plasma sample, and the plasma must be prepared within 30 min after blood collection. The plasma was stored in −80° C. refrigerator before test.
(§3) Experimental Method • 1) Take a sample to be tested from refrigerator (−80° C.), melt in situ at room temperature, then eddy for 5 min; • 2) Precisely move 20 μL of sample into 1.5 mL centrifuge tube; • 3) Add 200 μL of internal standard solution; • 4) Eddy for 3 min, then centrifuge for 5 min (12000 rpm); • 5) Precisely move 50 μL of supernatant and add into 150 μL of water, eddy for 3 min, and load to LC-MS/MS for analysis.
(§4) Test sample (plasma sample) concentrations were output by using Analyst 1.5.1 of AB Company. […] Mean values, standard deviation and variable coefficient (those directly outputed by Analyst 1.5.1 were not calculated), were calculated by Microsoft Excel. PK parameter was calculated by using software Pharsight Phoenix 6.2.
(§5) Wherein T1/2 represents half-life period; AUCinf represents area under drug-time curve 0→∞; CL represents clearance rate; Vss represents apparent volume of distribution; Cmax represents peak concentration of the compound in plasma; Tmax represents the time at which the compound reached the peak concentration; F % represents absolute bioavailability.
Data set [6] is described as follows: Rat pharmacokinetics after intragastric administration (LC-MS/MS of plasma). The following applies: for F: rats, intragastric, absolute bioavailability. It counts as in vivo, rats. The text has this:
Instrument and equipment: API4000 LC-MS/MS

A further data set has as its target T1, PDE-5 (Homo sapiens, UniProt O76074).
T1 construct: PDE-5 source, human platelets; from tissue; host or cells: human platelets
The data set can be described thus: Scintillation counter (Topcount) PDE-5 enzyme assay. The format is biochemical.

The next data set can be described thus: in vivo. The following applies: rat, iv, 2 mg/kg.
Data set [7] is described as follows: Solubility of Compound 1 in buffer solutions of different pH (visual observation). It counts as physicochemical. Particulars: for solubility at 5 min: aqueous buffer, thermodynamic from solid. As to the method: 1. Method for preparing sample of Compound 1, 6 parts of test sample were precisely weighed, each was 2 mg and was separately added to 40 μL of buffer solutions of pH 4, pH 5, pH 6, pH 7, pH 8, pH 9, respectively. Jolted (ultrasonic treatment for 5 min) and detected by visual observation.
1.02 g of potassium hydrogen phthalate was weighed, added to 0.05 mL of 0.2 mol/L hydrochloric acid solution and an appropriate amount of water for dissolution, diluted by adding water to 100 mL, mixed homogeneously to obtain the subject solution.
1.02 g of potassium hydrogen phthalate was weighed, added to 11.3 mL of 0.2 mol/L sodium hydroxide solution and an appropriate amount of water for dissolution, diluted by adding water to 100 mL, mixed homogeneously to obtain the subject solution.
0.68 g of potassium dihydric phosphate was weighed, added to 2.8 mL of 0.2 mol/L sodium hydroxide solution and an appropriate amount of water for dissolution, diluted by adding water to 100 mL, mixed homogeneously to obtain the subject solution.
0.68 g of potassium dihydric phosphate was weighed, added to 14.55 mL of 0.2 mol/L sodium hydroxide solution and an appropriate amount of water for dissolution, diluted by adding water to 100 mL, mixed homogeneously to obtain the subject solution.
0.75 g of potassium chloride and 0.62 g of boric acid were weighed, added to 3.9 mL of 0.2 mol/L sodium hydroxide solution and an appropriate amount of water for dissolution, diluted by adding water to 200 mL, mixed homogeneously to obtain the subject solution.
0.75 g of potassium chloride and 0.62 g of boric acid were weighed, added to 20.8 mL of 0.2 mol/L sodium hydroxide solution and an appropriate amount of water for dissolution, diluted by adding water to 200 mL, mixed homogeneously to obtain the subject solution.

The nature of data set [8]: Rat pharmacokinetics after intravenous injection (LC-MS/MS of plasma). The following applies: for concentration at 0.083 h: 1 mg/kg, Concentration of Compound 1 in rat body.
Procedure: as §1, §2, §3, §4, §5

The term IC50 denotes the concentration that gives 50% inhibition. A low value points to inhibition by little substance. As usually defined, the Vd is the apparent volume that relates the amount in the body to the concentration in plasma or blood. The clearance is the rate of elimination divided by the concentration. A low value points to a low capacity for elimination.

Values after ≈ are worked out from the molar mass of the structure shown. Read-outs that look alike come from different tables or passages of the source. Where only a bound is given, the exact number is not on record here.

Procedure for in vivo: as §1, §2, §3, §4, §5

Consider `COc1ccc(CNc2nc(N3CC4CC4C3)ncc2C(=O)N[C@H]2CC[C@H](O)CC2)cc1Cl` (stereo partly drawn) [Compound Q, 2-(3-azabicyclo[3.1.0]hexan-3-yl)-4-(3-chloro-4-methoxybenzylamino)-N-(trans-4-hydroxycyclohexyl)pyrimidine-5-carboxamide], for which the solubility at 5 min in data set [1] (buffer solution pH 3) is 371 µg/mL (≈ 786 µM); in data set [1] (buffer solution pH 5), 0.276 µg/mL (≈ 0.585 µM); in data set [1] (buffer solution pH 7) it was 0.124 µg/mL (≈ 0.263 µM); in [1] (buffer solution pH 9), 0.128 µg/mL (≈ 0.271 µM).

Take `COc1ccc(CNc2nc(N3CCC4(CC4)C3)ncc2C(=O)N[C@H]2CC[C@H](OP(=O)([O-])[O-])CC2)cc1Cl.[Na+].[Na+]` [Compound 4, N-trans-4-(4-((3-chloro-4-methoxybenzyl)amino)-2-(5-azaspiro[2.4]heptan-5-yl)pyrimidine-5-carboxamido)cyclohexyl phosphate disodium salt]: the “Solubility in water relative to original drug Compound 4-A” value in [2] was found to be 2000 times. Moreover, the solubility at 5 min in [2] (thermodynamic from solid, ultrasound 5 min) is no less than 200000 µg/mL.

In the case of `CN1CC(=O)N2[C@H](c3ccc4c(c3)OCO4)c3[nH]c4ccccc4c3C[C@@H]2C1=O` [Tadalafil], the half-life entry in data set [3] is reported as “about 16 h”.

In the case of `COc1ccc(CN=c2[nH]c(N3CCC[C@H]3CO)ncc2C(=O)NCc2ncccn2)cc1Cl` [Avanafil], the half-life result in data set [4] is “about 1.2 h”. Further, in data set [5], the AUCinf was 382 ng·h/mL and the T1/2 came to 30 min. In [6] (dose 2 mg/kg (Table 5)), this molecule returned an F of 4.5%. Further, half-maximal inhibition at PDE-5 (IC50) required 3.1 nM. In “in vivo”, the Vd was determined as 3.56 L/kg and the clearance is 88.5 mL/min/kg.

For the molecule `COc1ccc(CNc2nc(N3CC4CC4C3)ncc2C(=O)N[C@H]2CC[C@H](OP(=O)([O-])[O-])CC2)cc1Cl.[Na+].[Na+]` (stereo partly drawn) [Compound 1, N-trans-4-(2-(3-azabicyclo[3.1.0]hexan-3-yl)-4-(3-chloro-4-methoxybenzylamino)pyrimidine-5-carboxamido)cyclohexyl phosphate disodium salt], the solubility at 5 min is no less than 50000 µg/mL in [7] (buffer solution pH 5, 2 mg in 40 μL); no less than 50000 µg/mL in data set [7] (buffer solution pH 6, 2 mg in 40 μL); no less than 50000 µg/mL in [7] (buffer solution pH 7, 2 mg in 40 μL); no less than 50000 µg/mL in data set [7] (buffer solution pH 8, 2 mg in 40 μL); no less than 50000 µg/mL in data set [7] (buffer solution pH 9, 2 mg in 40 μL). Further, the “Solubility, in words” value in [7] (buffer solution pH 4, compared with pH 5 to 9) was “decreased”. Also, in [7] (buffer solution pH 4, 2 mg in 40 μL), the Phenomenon on dissolution entry is reported as “precipitated after about 5 min”. Further, the “Plasma detection of Compound 1 at each time point” value in [6] (after intragastric administration (PO), LC-MS/MS) is recorded as “not detected”. Further, the “Plasma detection of Compound 1 at all other time points” value in [8] (after IV injection, time points other than 0.083 h, LC-MS/MS) is “could not be detected”. In addition, the concentration at 0.083 h in data set [8] (rat, plasma, iv, Mean, IV 1 mg/kg, mean of 3 rats) stood at 165 ng/mL; in [8] (rat, plasma, iv, Rat 1, IV 1 mg/kg, Rat 1), 162 ng/mL; in [8] (rat, plasma, iv, Rat 2, IV 1 mg/kg, Rat 2), 183 ng/mL; in data set [8] (rat, plasma, iv, Rat 3, IV 1 mg/kg, Rat 3), 151 ng/mL. For the same molecule, the “Time of conversion of prodrug Compound 1 into Compound Q” value in [8] (rats, after IV injection) is reported as no more than 0.083 h.

Molecule `COc1ccc(CNc2nc(N3CC4CC4C3)ncc2C(=O)N[C@H]2CC[C@H](O)CC2)cc1C` (stereo partly drawn) [Compound 9-B, 2-(3-azabicyclo[3.1.0]hexan-3-yl)-N-(trans-4-hydroxycyclohexyl)-4-(4-methoxy-3-methylbenzylamino)pyrimidine-5-carboxamide] had a F in data set [6] (dose 5 mg/kg (Table 5)) of 65%. In data set [8] (rat, plasma, iv, 2 mg/kg), the Vd was 4.48 L/kg and the clearance is 13 mL/min/kg.
